In patent US20020004198A1, “Novel anti-infectives” (priority 1998, published 2002):

How the values were obtained:
MCP protein = MCP protein (Human cytomegalovirus, UniProt P16729); conditions: increasing concentrations of peptide (0.1 to 10 μg), FIG. 2
Experimental: To investigate the interaction between the UL80.5 peptide and MCP, an ELISA assay was developed. For this purpose, a 96 well microtiter plate (Nunc—Immuno Maxisorp) was coated with 100 μl per well of a 1/50 dilution (in carbonate buffer: 40 mM NaCO3, 36 mM NaHCO3, 3mM Na Azide pH 9.6) of recombinant baculovirus supernatant containing MCP (prepared as described above). The plate was incubated at 37° C. for 2 hours. The plate was then washed 4-5 times in 200 μl per well of PBS (1.37 M NaCl, 80 mM Na2HPO4, 26.8 KCl, 14.7 mM KH2PO4, pH 7.0) containing 0.2 % Triton X-100, followed by incubation with 0.1 μg of UL80.5 peptide (SEQ ID NO:3) diluted in carbonate buffer for 1 hour at 37° C. The plate was then washed to remove any unbound peptide, and subsequent nonspecific binding blocked by the addition of 200 μl of 1% casein block (Pierce; Rockford, Ill.) 3 times for 30 seconds each at room temperature. The plate was washed as before, and 200 μl of a primary antipeptide antibody (prepared as described above) diluted 1/5000 in wash buffer (PBS containing 0.2% Triton X-100) was added and incubated for 1 hour at room temperature. […] Following a 30 minute room temperature incubation in the dark, the plate was read at 450 nm on a microtiter plate reader. […]

[1] = biological target: T1, UL80.5 gene product/MCP interaction (Human cytomegalovirus, UniProt P16729); test: competitive binding assay (ELISA): inhibition of UL80.5 gene product/MCP interaction; design: species or system CMV; conditions: 0.1 μg of UL80.5 peptide; compound 0.4 to 50 μM; average of six independent experiments (FIG. 3); read-out: average IC50 (concentration at which binding is reduced by 50%)
T1 construct: Recombinant baculovirus Autographa californiica nuclear polyhedrosis virus expressing full-length CMV MCP; made in house; host or cells: Sf9 insect cells infected with recombinant baculovirus; crude clarified supernatant used for coating
Experimental: Inhibitor activity was detected using a competitive binding assay. Scaffolding polypeptide and the compound to be tested are added sequentially or simultaneously to a microtiter plate precoated with full-length MCP. A primary antibody specific for the scaffolding polypeptide is then added, followed by a labeled secondary antibody directed against the primary antibody, and signal from the label measured. If the compound is unable to compete for binding, then the peptide binds to MCP and a signal is detected. […] In all assays a background control is included in which no peptide is added, but all other reagents are identical. In addition, a set of samples in which no compound is added is also included. This value is set at 100% and the percent inhibition is calculated relative to this number. […]
In order to determine if potential inhibitors of UL80.5 gene product/MCP interaction could be detected with this assay, compounds were assayed for activity.
In order to assay for inhibitors in a high throughput manner, the ELISA assay described above was modified. […] The plates were washed 6 times, and 50 μl of Wallac enhancement solution (Wallac; Gaithersburg, Md.) added, and the plate shaken for 10 minutes, before being read on a Wallac VICTOR microtiter plate reader (Wallac; Gaithersburg, Md.).

NH2-Ala-Ser-Gln-Ser-Pro-Pro-Lys-Asp-Met-Val-Asp-Leu-Asn-Arg-Arg-Ile-Phe-Val-Ala-Ala-Leu-Asn-Lys-Leu-Glu-COOH [UL80.5 peptide]
concentration of peptide at which 50% binding to MCP occurred (MCP protein): 0.3 µg

NCCc1c[nH]c2ccc(-c3ccc4ccccc4c3)cc12 [Target compound 6]
IC50 [1]: 4.2 µM
